“Also recorded” adds a separate entry of the source. Read-outs that look alike come from different tables or passages of the source.
How the values were obtained:
Chimera 2 [1] = molecular target: T1, Chimera 2 (Homo sapiens, UniProt P36544, M226I/T225V); assay: Two electrode voltage clamp in Xenopus oocytes (POETs), agonist and modulator responses; format: cell-based; design: expressed in transfected cells; host or cells: Xenopus laevis oocytes (transient, A2)
[2] = molecular target: T2, wild-type human 5-HT3A receptors (Homo sapiens, UniProt P46098); assay: Two electrode voltage clamp in Xenopus oocytes, agonist and modulator responses; format: cell-based
T2 construct: expressed in transfected cells; host or cells: Xenopus laevis oocytes
T2 sequence (P46098 1-484 isoform P46098-4): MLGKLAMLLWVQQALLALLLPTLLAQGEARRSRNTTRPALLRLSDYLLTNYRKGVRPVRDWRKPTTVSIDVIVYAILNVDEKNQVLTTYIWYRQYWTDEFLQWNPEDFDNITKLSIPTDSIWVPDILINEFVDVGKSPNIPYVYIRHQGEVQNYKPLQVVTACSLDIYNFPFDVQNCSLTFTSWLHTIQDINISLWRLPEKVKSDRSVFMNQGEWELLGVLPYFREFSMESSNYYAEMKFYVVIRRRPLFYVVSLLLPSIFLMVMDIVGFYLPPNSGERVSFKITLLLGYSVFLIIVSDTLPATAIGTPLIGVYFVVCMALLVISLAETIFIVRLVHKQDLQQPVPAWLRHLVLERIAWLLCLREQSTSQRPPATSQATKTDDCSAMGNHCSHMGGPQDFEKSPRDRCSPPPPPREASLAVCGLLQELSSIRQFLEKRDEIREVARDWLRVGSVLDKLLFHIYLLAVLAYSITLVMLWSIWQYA

Chimera 8 = molecular target: T3, Chimera 8 (Homo sapiens, UniProt P46098, I238M/V237T); assay: Two electrode voltage clamp in Xenopus oocytes, reverse 5HT3-α7 chimera; format: cell-based
T3 construct: expressed in transfected cells; host or cells: Xenopus laevis oocytes
Method: Xenopus laevis oocytes were prepared and injected as previously described {Eisele, 1993 #2; Krause, 1998 #4}. Briefly, ovaries were harvested from female Xenopus. Isolation of the oocytes was obtained by enzymatic dissociation using collagenase type I in a medium deprived of calcium and by gentle mechanical agitation for approximately 3 hours. Oocytes stage 5-6 were manually selected on the next day and injected into the nucleus with 2 ng plasmid containing the cDNA of interest. Oocytes were then placed in a 96 well microtiter plate in Barth solution and used for electrophysiological investigation two to five days later. All recordings were performed at 18° C. and cells were superfused with OR2 medium containing in mM:NaCl 82.5, KCI 2.5, HEPES 5, CaCl2.2H2O 2.5, MgCl2.6H2O 1, pH 7.4, and 0.5 μM atropine was added to prevent possible activation of endogenous muscarinic receptors. Unless indicated cells were held at −100 mV using a two electrode voltage clamp apparatus connected to a Geneclamp amplifier (Molecular Devices). Data were captured and analyzed using data acquisition and analysis software. […] Values indicated throughout the text are given with their respective standard error of the mean (SEM). For statistical analysis we used the unpaired, two-tailed Student's T test using either excel (Microsoft) or Matlab (Mathworks Inc.).
To examine the putative role of the transmembrane domains, a reverse chimera comprising the 5-HT3 ligand binding domain and the transmembrane domain of α7 was designed and constructed. […] See FIGS. 13A and B. To best evaluate a putative allosteric modulation, currents evoked by low agonist concentration were also investigated, but exposure to either NS-1738 or PNU-120596 caused no detectable modification of the response amplitude or time course. […] Data not shown. […] The cartoon above the traces in FIG. 13 illustrates the schematic structure of a single subunit inserted into the membrane. The gray line corresponds to the extracellular 5HT3 receptor sequence, whereas the dark line indicates the α7 segments. Despite the low yield of expression, significant and reproducible currents were evoked by brief exposure to 5-HT.

[3] = molecular target: T4, wild-type α7 nicotinic acetylcholine receptor (Homo sapiens, UniProt P36544); assay: Two electrode voltage clamp in Xenopus oocytes, agonist and modulator responses; format: cell-based
T4 construct: expressed in transfected cells; host or cells: Xenopus laevis oocytes

Chimera 1 [4] = molecular target: T5, Chimera 1 (Homo sapiens, UniProt P36544, M226I/T225V); assay: Membrane potential imaging (FLIPR-FMP) in HEK-293 cells; format: cell-based; design: expressed in transfected cells; conditions: for Modulation of submaximum agonist-evoked membrane potential response (words): FMP
Chimera 2 [5] = molecular target: T1, Chimera 2; assay: as above; format: cell-based; design: expressed in transfected cells; conditions: for Modulation of submaximum agonist-evoked membrane potential response (words): FMP
Chimera 1 [6] = molecular target: T5, Chimera 1; assay: Two electrode voltage clamp in Xenopus oocytes (POETs), agonist and modulator responses; format: cell-based; design: expressed in transfected cells; host or cells: Xenopus laevis oocytes (transient, A1)
[7] = molecular target: T6, rat brain α7* nicotinic acetylcholine receptors (Rattus norvegicus, UniProt Q05941); assay: [3H]A-585539 radioligand binding, rat brain homogenates; conditions: rat cortex, increasing concentrations
T6 construct: expressed both as a native (rat cortex) or α7/5-HT3 chimeric receptor; from tissue; host or cells: rat brain / rat cortex homogenates

Chimera 2 [8] = molecular target: T1, Chimera 2; assay: [3H]A-585539 radioligand binding, HEK-293 membranes/homogenates; design: expressed in transfected cells; conditions: increasing concentrations
Chimera 2 [9] = molecular target: T1, Chimera 2; assay: Whole cell patch clamp in HEK-293 cells; format: cell-based; design: expressed in transfected cells
[10] = read-out: Maximum efficacy (mean±S.E.M.), agonist-evoked current
[11] = HEK293, read-out: Maximum efficacy (mean±S.E.M.), membrane potential imaging, HEK-293 cells
[12] = read-out: Agonist potency, membrane potential imaging: EC50 (95% C.I.), HEK-293 cells
[13] = HEK-293 cells, listed as 5-hydroxyindole

T5 sequence (P36544 with tags, fused parts or gaps T225V/M226I): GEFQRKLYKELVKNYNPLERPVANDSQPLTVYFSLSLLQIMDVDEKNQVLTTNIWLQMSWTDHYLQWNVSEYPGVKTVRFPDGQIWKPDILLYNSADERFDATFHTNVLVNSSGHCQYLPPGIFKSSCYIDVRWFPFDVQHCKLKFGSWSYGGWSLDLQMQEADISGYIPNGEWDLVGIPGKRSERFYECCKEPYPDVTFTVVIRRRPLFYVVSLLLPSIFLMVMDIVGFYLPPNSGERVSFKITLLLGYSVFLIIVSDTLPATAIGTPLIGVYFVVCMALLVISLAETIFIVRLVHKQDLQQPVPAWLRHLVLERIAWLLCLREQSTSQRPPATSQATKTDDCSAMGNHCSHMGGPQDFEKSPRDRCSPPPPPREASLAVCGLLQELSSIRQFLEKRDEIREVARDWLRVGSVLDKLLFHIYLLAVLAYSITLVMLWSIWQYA
T4 sequence (P36544 23-502): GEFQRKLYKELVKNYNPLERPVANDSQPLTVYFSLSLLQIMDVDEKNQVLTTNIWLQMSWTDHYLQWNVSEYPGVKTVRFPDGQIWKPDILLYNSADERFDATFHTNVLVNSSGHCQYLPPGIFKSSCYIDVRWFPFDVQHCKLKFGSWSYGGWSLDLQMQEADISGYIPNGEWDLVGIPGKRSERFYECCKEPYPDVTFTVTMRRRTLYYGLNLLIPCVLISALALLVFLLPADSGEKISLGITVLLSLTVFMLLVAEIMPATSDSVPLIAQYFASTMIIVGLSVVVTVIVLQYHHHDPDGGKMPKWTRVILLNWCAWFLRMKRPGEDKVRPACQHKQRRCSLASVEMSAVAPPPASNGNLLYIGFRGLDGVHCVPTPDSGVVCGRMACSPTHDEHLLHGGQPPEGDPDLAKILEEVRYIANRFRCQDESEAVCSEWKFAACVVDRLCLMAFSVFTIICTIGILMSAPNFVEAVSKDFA
T1 sequence (P36544 with tags, fused parts or gaps T225V/M226I): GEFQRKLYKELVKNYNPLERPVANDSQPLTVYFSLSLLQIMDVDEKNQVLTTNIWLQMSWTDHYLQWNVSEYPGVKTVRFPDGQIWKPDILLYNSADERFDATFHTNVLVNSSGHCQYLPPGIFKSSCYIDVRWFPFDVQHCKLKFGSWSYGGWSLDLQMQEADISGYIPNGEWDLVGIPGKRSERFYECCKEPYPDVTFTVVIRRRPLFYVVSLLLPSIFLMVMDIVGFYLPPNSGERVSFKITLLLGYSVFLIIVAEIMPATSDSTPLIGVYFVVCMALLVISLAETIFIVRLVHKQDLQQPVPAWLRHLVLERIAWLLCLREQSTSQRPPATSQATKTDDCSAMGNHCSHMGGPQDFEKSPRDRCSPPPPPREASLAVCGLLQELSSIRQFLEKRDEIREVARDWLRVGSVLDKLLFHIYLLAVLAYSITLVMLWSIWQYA
T6 sequence (Q05941 23-502): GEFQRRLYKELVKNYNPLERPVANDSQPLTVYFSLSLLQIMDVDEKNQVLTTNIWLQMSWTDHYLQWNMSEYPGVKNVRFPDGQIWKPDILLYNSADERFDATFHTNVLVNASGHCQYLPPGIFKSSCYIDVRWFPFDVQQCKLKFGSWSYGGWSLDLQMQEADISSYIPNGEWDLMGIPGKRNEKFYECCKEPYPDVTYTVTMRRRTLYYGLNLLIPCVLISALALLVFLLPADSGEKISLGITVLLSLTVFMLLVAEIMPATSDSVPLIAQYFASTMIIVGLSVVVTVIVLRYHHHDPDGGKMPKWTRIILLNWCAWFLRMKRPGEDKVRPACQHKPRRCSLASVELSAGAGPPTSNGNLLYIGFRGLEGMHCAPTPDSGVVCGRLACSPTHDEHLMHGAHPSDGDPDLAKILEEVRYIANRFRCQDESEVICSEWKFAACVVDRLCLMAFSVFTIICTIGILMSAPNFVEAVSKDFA
T3 sequence (P46098 with tags, fused parts or gaps isoform P46098-4 V243T/I244M): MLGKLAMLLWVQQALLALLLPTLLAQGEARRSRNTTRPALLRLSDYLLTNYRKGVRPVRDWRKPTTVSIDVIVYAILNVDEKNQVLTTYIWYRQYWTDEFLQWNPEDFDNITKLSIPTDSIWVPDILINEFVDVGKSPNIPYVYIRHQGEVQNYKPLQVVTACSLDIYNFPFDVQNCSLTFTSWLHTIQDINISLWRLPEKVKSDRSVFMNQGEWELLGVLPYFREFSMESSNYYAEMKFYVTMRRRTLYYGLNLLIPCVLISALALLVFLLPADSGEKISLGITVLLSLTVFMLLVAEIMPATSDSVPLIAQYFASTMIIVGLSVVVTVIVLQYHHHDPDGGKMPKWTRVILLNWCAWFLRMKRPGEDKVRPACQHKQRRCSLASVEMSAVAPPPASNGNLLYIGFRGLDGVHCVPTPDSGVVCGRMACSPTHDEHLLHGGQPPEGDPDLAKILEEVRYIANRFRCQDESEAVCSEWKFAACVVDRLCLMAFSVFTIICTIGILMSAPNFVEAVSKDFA

Br.CO[C@H]1CC=C2CCN3CCC4=C(CC(=O)OC4)[C@]23C1 [dihydro-β-erythroidine hydrobromide]
Effect on the inward current evoked by NS-1738 alone (Chimera 2 [1]; Xenopus oocytes, data not shown): inhibited the inward current observed during the NS-1738 exposure

NCCc1c[nH]c2ccc(O)cc12 [5-HT, 5-hydroxytryptamine]
Emax ([2]; Xenopus oocytes, read-out: Maximum activation): 100%
Agonist-evoked current (Chimera 8): significant inward currents

C[N+](C)(C)CCO [Choline, choline]
EC50 ([3]; Agonist potency, two electrode voltage clamp, Xenopus oocyte: EC50 (95% C.I.), peak current amplitude): 1120 µM
Emax [3, 10]: 81 ± 4%
Emax (Chimera 1 [4]; [11]): 132 ± 9%
FLIPR-FMP pEC50 ± SEM (Chimera 1 [4]; HEK-293 cells): 2.9 ± 0.06
EC50 (Chimera 1 [4]; [12]): 285 µM
Emax (Chimera 2 [5]; [11]): 101 ± 6%
FLIPR-FMP pEC50 ± SEM (Chimera 2 [5]; HEK-293 cells): 4.4 ± 0.04
EC50 (Chimera 2 [5]; [12]): 37.8 µM
Electrophysiology (POETs) pEC50 ± SEM (Chimera 1 [6]; Xenopus oocytes): 2.9 ± 0.06
EC50 (Chimera 1 [6]; read-out: Agonist potency, two electrode voltage clamp, Xenopus oocyte: EC50 (95% C.I.), peak current amplitude): 1510 µM
Emax (Chimera 1 [6]; [10]): 91 ± 7%
Electrophysiology (POETs) pEC50 ± SEM (Chimera 2 [1]): 3.7 ± 0.08
EC50 (Chimera 2 [1]; read-out: Agonist potency, two electrode voltage clamp, Xenopus oocyte: EC50 (95% C.I.)): 214 µM
Emax (Chimera 2 [1]; [10]): 78 ± 4%

Oc1ccc2[nH]ccc2c1 [5-HI, 5-hydroxyindole]
EC50 [3]: 667 µM
Percentage potentiation of submaximum agonist-evoked responses (mean±S.E.M.) ([3]; 100 μM ACh): 516±59%
ng of ACh curve after modulator ([3]; 1 mM 5-HI): 1.97 ± 0.84
EC50 ([3]; Positive allosteric modulation potency, two electrode voltage clamp: EC50 (95% C.I.), submaximum ACh (100 μM)-evoked response): 500 to 700 µM
Effect of modulator on ACh-evoked current (words) ([3]; Xenopus oocytes): substantial increase in the amplitude of the subsequent ACh-evoked current
Percentage potentiation of submaximum agonist-evoked responses (mean±S.E.M.) ([2]; 1-3 μM 5-HT): 58±9%
Effect of modulator on agonist (5-HT)-evoked current ([2]; Xenopus oocytes): Neither compound increased the responses
inhibition at 10000 µM ([2]; at 10,000 μM (10 mM), read-out: Observed % inhibitory effect on submaximum 5-HT-evoked response): ~40%
Competition / displacement of [3H]A-585539 binding [7]: neither compound effectively displaced the binding
Modulation of submaximum agonist-evoked membrane potential response (words) (Chimera 1 [4]; HEK-293 cells): potentiated the submaximum α7 agonist (NS6784) evoked membrane potential depolarization; also recorded: effective in both Chimeras
Modulation of submaximum agonist-evoked membrane potential response (words) (Chimera 1 [4]; [13]): able to potentiate both Chimeras
EC50 (Chimera 1 [4]; read-out: FMP imaging: positive allosteric modulation EC50 (95% C.I.), submaximum NS6784 (120-200 nM)): 234 µM
Maximum positive allosteric modulation efficacy (Chimera 1 [4]; submaximum NS6784 120-200 nM): 204±9%
Modulation of submaximum agonist-evoked membrane potential response (words) (Chimera 2 [5]; HEK-293 cells): potentiated submaximum NS6784 evoked responses; also recorded: effective as positive allosteric modulators; also recorded: effective in both Chimeras
Modulation of submaximum agonist-evoked membrane potential response (words) (Chimera 2 [5]; [13]): able to potentiate both Chimeras
EC50 (Chimera 2 [5]; read-out: FMP imaging: positive allosteric modulation EC50 (95% C.I.), submaximum NS6784 (60-70 nM)): 324 µM
Maximum positive allosteric modulation efficacy (Chimera 2 [5]; submaximum NS6784 60-70 nM): 177±8%
Competition / displacement of [3H]A-585539 binding (Chimera 2 [8]): neither compound effectively displaced the binding
Directly evoked peak response normalized to 100 μM ACh (Chimera 2 [9]; 10 mM): 26.4±7.1%
Directly evoked total charge (integral) normalized to 100 μM ACh (Chimera 2 [9]; 10 mM): 52.4±10.3%
Direct current activation by modulator alone (Chimera 2 [9]; genistein 100 μM, 5-HI 10 mM): Qualitatively similar responses were also obtained
Positive allosteric modulation of ACh-evoked current (Chimera 2 [9]; genistein 30-50 μM, 5-HI 1 mM): effective as positive allosteric modulators
Percentage potentiation of submaximum agonist-evoked responses (mean±S.E.M.) (Chimera 1 [6]; 100 μM ACh): 428±23%
ng of ACh curve after modulator (Chimera 1 [6]; 1 mM 5-HI): 1.4 ± 0.13
Effect of modulator on ACh-evoked current (words) (Chimera 1 [6]; Xenopus oocytes): positive modulation is still observed
EC50 (Chimera 1 [6]; read-out: Positive allosteric modulation potency, two electrode voltage clamp: EC50 (95% C.I.), submaximum ACh (100 μM)-evoked response): 500 µM
Peak current amplitude evoked by compound alone, normalized to 10 μM ACh (Chimera 2 [1]; 1 mM): 5.4+/−1.8%
ng of ACh curve after modulator (Chimera 2 [1]; 1 mM 5-HI): 1.35 ± 0.25
Peak current amplitude evoked by compound alone, normalized to 10 μM ACh (Chimera 2 [1]; 3 mM): 37.8+/−11.6%
Percentage potentiation of submaximum agonist-evoked responses (mean±S.E.M.) (Chimera 2 [1]; 10-30 μM ACh): 262±39%
Direct current activation by modulator alone (Chimera 2 [1]; Xenopus oocytes): could also evoke responses in Chimera 2; also recorded: evoked unique agonist-like current
EC50 (Chimera 2 [1]; read-out: Positive allosteric modulation potency, two electrode voltage clamp: EC50 (95% C.I.), submaximum ACh (10-30 μM)-evoked response): 496 µM

— patent US8759504B2, “Cholinergic/serotoninergic receptor and uses thereof” (AbbVie Inc., priority 2007, dated 2014)
